In the NIST ThermoML archive (doi:10.1016/j.jct.2016.10.033):

Test: refractive index (Na D-line) (dimensionless); xn = mol fraction of the nth substance listed
Details: 103 kPa, Liquid, Standard Abbe refractometry

C=C[Si](C)(OCC)OCC [methylvinyldiethoxysilane] + CO[Si](C)(OC)c1ccccc1
refractive index
Details | 298.15 K | 303.15 K | 308.15 K | 313.15 K | 318.15 K
x2 = 0 | 1.39751 | 1.39501 | 1.39249 | 1.38997 | 1.38742
x2 = 0.05 | 1.40161 | 1.39911 | 1.3966 | 1.39407 | 1.39153
x2 = 0.1001 | 1.40569 | 1.40322 | 1.40071 | 1.39819 | 1.39567
x2 = 0.1499 | 1.40975 | 1.40729 | 1.40481 | 1.4023 | 1.39979
x2 = 0.2001 | 1.41382 | 1.41135 | 1.40888 | 1.40639 | 1.40391
x2 = 0.2501 | 1.41792 | 1.41547 | 1.413 | 1.41052 | 1.40804
x2 = 0.3 | 1.42192 | 1.41948 | 1.41702 | 1.41456 | 1.41207
x2 = 0.3499 | 1.42595 | 1.42352 | 1.42108 | 1.41864 | 1.41615
x2 = 0.4 | 1.42999 | 1.42755 | 1.42511 | 1.42265 | 1.4202
x2 = 0.4501 | 1.43404 | 1.43161 | 1.42919 | 1.42673 | 1.4243
x2 = 0.5 | 1.43801 | 1.43558 | 1.43316 | 1.43072 | 1.42827
x2 = 0.5499 | 1.44203 | 1.43961 | 1.43721 | 1.43477 | 1.43237
x2 = 0.6 | 1.44606 | 1.44365 | 1.44126 | 1.43884 | 1.43645
x2 = 0.65 | 1.44994 | 1.44754 | 1.44513 | 1.44272 | 1.4403
x2 = 0.6999 | 1.45398 | 1.45159 | 1.44922 | 1.44683 | 1.44442
x2 = 0.75 | 1.45797 | 1.45558 | 1.45323 | 1.45086 | 1.44847
x2 = 0.7999 | 1.46196 | 1.45958 | 1.45722 | 1.45484 | 1.45248
x2 = 0.85 | 1.46589 | 1.46352 | 1.46116 | 1.45878 | 1.45641
x2 = 0.8998 | 1.46999 | 1.46763 | 1.46528 | 1.4629 | 1.46054
x2 = 0.9499 | 1.47377 | 1.47142 | 1.46907 | 1.46672 | 1.46435

C=C[Si](OC)(OC)OC [trimethoxy(vinyl)silane] + CO[Si](C)(OC)c1ccccc1
refractive index
Details | 298.15 K | 303.15 K | 308.15 K | 313.15 K | 318.15 K
x2 = 0 | 1.39022 | 1.38775 | 1.38535 | 1.3829 | 1.38046
x2 = 0.05 | 1.3954 | 1.39299 | 1.39056 | 1.38815 | 1.38572
x2 = 0.1 | 1.40052 | 1.39811 | 1.39569 | 1.39329 | 1.39082
x2 = 0.1499 | 1.40552 | 1.40314 | 1.40073 | 1.3983 | 1.39588
x2 = 0.2 | 1.41045 | 1.40807 | 1.40568 | 1.40327 | 1.40083
x2 = 0.2501 | 1.41527 | 1.41288 | 1.41047 | 1.40809 | 1.40568
x2 = 0.2999 | 1.41998 | 1.41762 | 1.41524 | 1.41284 | 1.41043
x2 = 0.35 | 1.42465 | 1.42228 | 1.41987 | 1.4175 | 1.4151
x2 = 0.4001 | 1.42919 | 1.42683 | 1.42444 | 1.42208 | 1.41967
x2 = 0.4501 | 1.43364 | 1.43129 | 1.42891 | 1.42653 | 1.42413
x2 = 0.5 | 1.43793 | 1.43559 | 1.43321 | 1.43084 | 1.42843
x2 = 0.5499 | 1.44232 | 1.43996 | 1.43759 | 1.4352 | 1.43283
x2 = 0.6 | 1.44653 | 1.44418 | 1.44182 | 1.43943 | 1.43706
x2 = 0.6499 | 1.45067 | 1.44831 | 1.44594 | 1.44356 | 1.4412
x2 = 0.7 | 1.45459 | 1.45224 | 1.4499 | 1.44754 | 1.44517
x2 = 0.75 | 1.45871 | 1.45636 | 1.454 | 1.45165 | 1.44929
x2 = 0.8001 | 1.46249 | 1.46015 | 1.45778 | 1.45542 | 1.45307
x2 = 0.8498 | 1.46647 | 1.46413 | 1.46178 | 1.45942 | 1.45707
x2 = 0.8999 | 1.47026 | 1.46791 | 1.46557 | 1.46321 | 1.46087
x2 = 0.9499 | 1.47397 | 1.47163 | 1.46928 | 1.46693 | 1.46458
